Experimental data taken from ChEMBL document CHEMBL1131839, “Synthesis and dopamine receptor modulating activity of unsubstituted and substituted triproline analogues of L-prolyl-L-leucyl-glycinamide (PLG)” (1999).
“And” between values parts separate entries of the source, which are not always exact repeats. Identical values can stand only once.

Key:
Rattus norvegicus [1] = assay: Maximal increase in rotations at a dose of 1 ug/kg, ip in 6-hydroxydopamine-lesioned rat model of hemi-parkinsonism.; type: functional
Rattus norvegicus [2] = assay: Maximal increase in rotations at a dose of 10 ug/kg, ip in 6-hydroxydopamine-lesioned rat model of hemi-parkinsonism.; type: functional
[3] = biological target: D(2) dopamine receptor (Bos taurus) (UniProt P20288); assay: Percentage of Dopamine receptor D2 in the high affinity form(RH) for the agonist was determined in the absence of GPP(NH)p pretreated with the compound at 100 nM; type: functional
Sequence of D(2) dopamine receptor (Bos taurus) (P20288 whole entry): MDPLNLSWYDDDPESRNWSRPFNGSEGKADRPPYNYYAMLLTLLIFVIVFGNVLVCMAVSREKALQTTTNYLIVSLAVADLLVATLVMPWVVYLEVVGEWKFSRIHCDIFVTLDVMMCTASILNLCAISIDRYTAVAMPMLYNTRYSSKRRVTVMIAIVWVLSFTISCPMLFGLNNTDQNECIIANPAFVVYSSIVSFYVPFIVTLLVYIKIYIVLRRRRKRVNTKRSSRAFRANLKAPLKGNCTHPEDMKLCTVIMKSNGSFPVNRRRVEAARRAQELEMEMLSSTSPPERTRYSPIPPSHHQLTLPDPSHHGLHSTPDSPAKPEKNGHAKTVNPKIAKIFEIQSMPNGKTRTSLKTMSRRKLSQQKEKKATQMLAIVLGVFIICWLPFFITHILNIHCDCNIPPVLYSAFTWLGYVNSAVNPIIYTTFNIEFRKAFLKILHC

[4] = biological target: D(2) dopamine receptor (Bos taurus) (UniProt P20288); assay: Percentage of Dopamine receptor D2 in the low affinity form(RL) for the agonist was determined in the presence of GPP(NH)p pretreated with the compound at 100 nM; type: functional
[5] = biological target: D(2) dopamine receptor (Bos taurus) (UniProt P20288); assay: Inhibitor constant(Ki) for Dopamine receptor D2 calculated for high affinity(KH) component of [3H]spiperidol binding in the presence of GPP(NH)p pretreated with the compound at 100 nM
[6] = biological target: D(2) dopamine receptor (Bos taurus) (UniProt P20288); assay: Inhibitor constant(Ki) for Dopamine receptor D2 calculated for low affinity(KL) component of [3H]spiperidol binding in the absence of GPP(NH)p pretreated with the compound at 100 nM
[7] = Ratio of RH to RL was determined in the absence of GPP(NH)p pretreated with the compound at 100 nM
[8] = biological target: D(2) dopamine receptor (Bos taurus) (UniProt P20288); assay: Percentage of Dopamine receptor D2 in the high affinity form(RH) for the agonist was determined in the presence of GPP(NH)p pretreated with the compound at 100 nM; type: functional
[9] = Ratio of RH to RL was determined in the presence of GPP(NH)p pretreated with the compound at 100 nM
[10] = biological target: D(2) dopamine receptor (Bos taurus) (UniProt P20288); assay: Percentage of Dopamine receptor D2 in the low affinity form(RL) for the agonist was determined in the absence of GPP(NH)p pretreated with the compound at 100 nM; type: functional
[11] = biological target: D(2) dopamine receptor (Bos taurus) (UniProt P20288); assay: Inhibitor constant(Ki) for Dopamine receptor D2 calculated for high affinity(KH) component of [3H]spiperidol binding in the absence of GPP(NH)p pretreated with the compound at 100 nM
[12] = biological target: D(2) dopamine receptor (Bos taurus) (UniProt P20288); assay: Inhibitor constant(Ki) for Dopamine receptor D2 calculated for low affinity(KL) component of [3H]spiperidol binding in the presence of GPP(NH)p pretreated with the compound at 100 nM
[13] = biological target: D(2) dopamine receptor (Bos taurus) (UniProt P20288); assay: Inhibitor constant(Ki) for Dopamine receptor D2 calculated for […] component of [3H]-spiperidol binding in the absence of GPP(NH)p pretreated with the compound at 100 nM
Rattus norvegicus [14] = assay: Maximal increase in rotations at a dose of 0.1 ug/kg, ip in 6-hydroxydopamine-lesioned rat model of hemi-parkinsonism.; type: functional
Rattus norvegicus [15] = assay: Maximal increase in rotations at a dose of 1 mg/kg, ip in 6-hydroxydopamine-lesioned rat model of hemi-parkinsonism.; type: functional; settings: route intraperitoneal

| Compound | RH [3] [%] | RL [4] [%] | KH [5] [nM] | KL [6] [nM] | Ratio [7] | RH [8] [%] | Ratio [9] | RL [10] [%] | KH [11] | KL [12] [nM] | further results |
| --- | --- | --- | --- | --- | --- | --- | --- | --- | --- | --- | --- |
| CC(C)C[C@H](NC(=O)[C@@H]1CCCN1)C(=O)N1CCC[C@@H]1C(N)=O | – | – | – | – | – | – | – | – | – | – | Increase (Rattus norvegicus [1]): 26% |
| CC(C)C[C@H](NC(=O)[C@@H]1CCCN1)C(=O)N1CCCC1C(N)=O (single isomer, unassigned) | – | – | – | – | – | – | – | – | – | – | Increase (Rattus norvegicus [14]): 30% |
| CC(C)CC(NC(=O)[C@@H]1CCCN1)C(=O)NCC(N)=O (single isomer, unassigned) | – | – | – | – | – | – | – | – | – | – | Increase (Rattus norvegicus [15]): 30% |

The next lines start with results.

| RH [3] [%] | RL [4] [%] | KH [5] [nM] | KL [6] [nM] | Ratio [7] | RH [8] [%] | Ratio [9] | RL [10] [%] | KH [11] | KL [12] [nM] | Compound | further results |
| --- | --- | --- | --- | --- | --- | --- | --- | --- | --- | --- | --- |
| 73 | 46 | 0.089 | 110 | 2.7 | 54 | 1.17 | 27 | 0.05 nM | 88 | NC(=O)[C@@H]1CCCN1C(=O)[C@@H]1CCCN1C(=O)[C@@H]1CCCN1 | Increase (Rattus norvegicus [2]): 47% |
| – | 46 | 0.087 | – | 1.08 | 54 | 1.17 | 48 | 0.052 nM and 52% | – | C[C@@H]1CCN(C(=O)[C@@H]2CCCN2)[C@@H]1C(=O)N1CCC[C@H]1C(N)=O | KL [5]: 106 nM; KL [13]: 98 nM |
| 71 | 33 | 0.054 | 153 | 2.45 | 67 | 2.03 | 29 | 0.086 nM | 140 | NC(=O)[C@H]1CCCN1C(=O)[C@@H]1CCCN1C(=O)[C@@H]1CCCN1 | – |
